Columns and labels:
[1] = system: purified NLRP6; experiment: ELISA, binding of HRP-conjugated peptide to purified NLRP6; conditions: HRP-conjugated peptide on NLRP6, 1 h, absorbance 450 nm
Description: DNA encoding full-length NLRP6 was codon optimized and chemically synthesized by Genewiz (Soochow, China). The DNA sequence was subcloned into NdeI-XhoI sites of a pDB-His-MBP vector (kindly given by Pro. Chenggui Han, China Agricultural University, Beijing, China). Recombinant NLRP6 protein was expressed and purified following previous reports, with slight modifications. Briefly, the protein was expressed in E. coli (DE3) at 16 °C with 0.5 mM IPTG induction overnight. Then, the protein was purified by Ni affinity and gel filtration chromatography. The p85α WT and p85α mutant sequences were chemically synthesized and subcloned into BamHI-XhoI sites of a pGEX-6P-1 plasmid by GenScript (Nanjing, China). The E. coli (DE3) transformed with the plasmids were grown in LB medium at 37 °C. The culture medium was supplemented with 0.5 mM IPTG followed by incubation at 16 °C for 16–18 h. The proteins were purified by glutathione-affinity chromatography (Smart-Life Sciences, Changzhou, China) followed by gel filtration chromatography (Cytiva, MA, USA) using PBS. The protein extinction coefficient was calculated by ProtParam, and the protein concentration was determined by the ultraviolet spectrophotometry method.
(§1) The 96-well plate was coated with bovine serum albumin (BSA) or purified NLRP6. HRP-conjugated PepC or HRP-conjugated Pep9 was incubated with BSA or NLRP6 for 1 h, and the unbound peptide was washed away. The HRP substrate was added, and the absorbance was detected at 450 nm. For the competitive ELISA, the 96-well plate was coated with purified p85α. The binding of NLRP6 to p85α competed with 10 μM PepC or 5 μM, 10 μM, 20 μM Pep9 for 1 h.

[2] = system: bovine serum albumin (BSA); experiment: ELISA, binding of HRP-conjugated peptide to BSA (control); conditions: HRP-conjugated peptide on BSA, 1 h, absorbance 450 nm
Description: as §1

[3] = system: HS683 cells; experiment: Cell proliferation / viability assay, HS683; assay type: cell-based, Human; conditions: Supplementary Figure 8f
Description: Cells were seeded into 12-well plates at a density of 1 × 10^4 cells per well. Manual cell counting was carried out at the indicated times using trypan blue and a haemocytometer.
(§2) To determine the antitumour effect of the peptide in vitro, the peptide was incubated with cells for 24 h when the cells were grown to approximately 80% confluence. Cell viability was measured at the indicated time points. The cell lysates were collected for immunoprecipitation as described above. To determine the antitumour effect of the peptide in vivo, the peptide was stereotactically injected using identical coordinates of tumour implantation in 3 μl of PBS. Briefly, 3 weeks after intracranial tumour cell implantation, mice with similar tumour sizes and similar weights were selected and randomly arranged into five groups (n = 6): PBS, PepC (0.25 mg/kg TAT-PepC per injection), Pep9 low dose (Pep9 L, 0.05 mg/kg TAT-Pep9 per injection), Pep9 medium dose (Pep9 M, 0.1 mg/kg TAT-Pep9 per injection), and Pep9 high dose (Pep9 H, 0.25 mg/kg TAT-Pep9 per injection). Each mouse received intratumoural injection every 10 days (at Day 21, Day 31, Day 41, and Day 51), and tumour growth was monitored at Day 21, Day 41, and Day 56. The experiment was terminated at Day 80, and all the mice (if they were alive) were sacrificed as previously described.

[4] = system: nude mice with intracranially implanted tumour cells; experiment: Survival of nude mice with intracranial tumour after intratumoural peptide; assay type: in vivo, BALB/c nude mice; conditions: 0.25 mg/kg per injection (PepC, Pep9 H)
Description: BALB/c nude mice were maintained and bred in a specific-pathogen free (SPF) environment, adhering to standard conditions of temperature (20–26 °C) and humidity (40–70%). They were subjected to a strict 12-h light cycle, with lights on at 08:00 a.m. and off at 08:00 p.m. No limitations were imposed on the sex of the experimental animals involved in this study. Cells expressing firefly luciferase mixed with Matrigel (Corning, NY, USA) were intracranially injected into 5- to 6-week-old female athymic nude mice. The intracranial injection point was at the cerebral cortex, 1 mm prior to coronal suture, 1 mm on the right side of the centreline, and 3 mm below the dura mater. Appropriate medications were provided to reduce pain. To monitor intracranial tumour growth, the animals were intraperitoneally injected with D-luciferin (Yeasen, #40902ES01) and anaesthetized with isoflurane. The images were captured using an In Vivo MS FX pro Imaging System (Bruker, MA, USA) or IVIS Lumina imaging station (Perkin Elmer, MA, USA). The results were reported as the total flux (photons/second). The mice were sacrificed at the indicated time points. The brains were removed, fixed in 4% paraformaldehyde, and embedded in paraffin.
as §2

[5] = system: p85α; experiment: IHC of p85α in tumour tissues from peptide-treated mice; assay type: in vivo, nude mice with human tumour cells; conditions: PepC
Description: In brief, the tissue sections were deparaffinized in xylene and 50–100% ethanol sequentially and then rehydrated in deionized water. The sections were immersed in Antigen Retrieval Solution in a pressure cooker and kept at 120 °C for 2.5 min. Endogenous peroxidase activity was blocked with peroxidase blocking reagent (3% hydrogen peroxide in water) for 15 min. The sections were incubated with primary antibodies in incubation buffer at 4 °C overnight. The sections were rinsed with wash buffer and incubated with secondary antibodies at room temperature for 1 h. Finally, the sections were immersed in DAB Chromogen Solution for suitable staining and counterstained with Haematoxylin QS for 3 min. The protein score was calculated by multiplying the percentage of positive cells (<10% = 0, 10–25% = 1, 25–50% = 2, 50–75% = 3, >75% = 4) by the intensity (negative = 0, weak staining = 1, moderate staining = 2, or strong staining = 3). The stained sections were evaluated by two independent pathologists who were blinded to the clinical characteristics.
as §2

“SAEGYQYRALYD [Pep1, peptide found on the p85α SH3 domain; selected as the control named PepC]” was tested, and the ELISA value ([1]; replicate 1) was 0.12, the ELISA value ([1]; replicate 2) was 0.10 and the ELISA value ([1]; replicate 3) was 0.06. It also gave an ELISA value ([2]; replicate 1) of 0.10, an ELISA value ([2]; replicate 2) of 0.15 and an ELISA value ([2]; replicate 3) of 0.12. The Relative cell viability ([3]; 5 μM, replicate 1) was 0.98, the Relative cell viability ([3]; 5 μM, replicate 2) was 0.96 and the Relative cell viability ([3]; 5 μM, replicate 3) was 0.94. For the same sequence, the Relative cell viability ([3]; 10 μM, replicate 1) was 0.96, the Relative cell viability ([3]; 10 μM, replicate 2) was 0.95 and the Relative cell viability ([3]; 10 μM, replicate 3) was 0.91. It also gave a Relative cell viability ([3]; 20 μM, replicate 1) of 0.94, a Relative cell viability ([3]; 20 μM, replicate 2) of 0.90 and a Relative cell viability ([3]; 20 μM, replicate 3) of 0.89. For the same sequence, the Relative cell viability ([3]; 30 μM, replicate 1) was 0.92, the Relative cell viability ([3]; 30 μM, replicate 2) was 0.88 and the Relative cell viability ([3]; 30 μM, replicate 3) was 0.85. The nude mice survival ([4]; terminated Day 80, mouse 1) was 60 days, the nude mice survival ([4]; terminated Day 80, mouse 2) was 61 days and the nude mice survival ([4]; terminated Day 80, mouse 3, >= is status 0 (live)) was 59 days. The nude mice survival ([4]; terminated Day 80, mouse 4, >= is status 0 (live)) was 58 days, the nude mice survival ([4]; terminated Day 80, mouse 5, >= is status 0 (live)) was 58 days and the nude mice survival ([4]; terminated Day 80, mouse 6, >= is status 0 (live)) was 62 days. The “score (Supplementary Figure 8k)” value ([5]; replicate 1) was 2, the “score (Supplementary Figure 8k)” value ([5]; replicate 2) was 1 and the “score (Supplementary Figure 8k)” value ([5]; replicate 3) was 1. For the same sequence, the “score (Supplementary Figure 8k)” value ([5]; replicate 4) was 3 and the “score (Supplementary Figure 8k)” value ([5]; replicate 5) was 1.

Source: paper PMC10539329, “NLRP6 potentiates PI3K/AKT signalling by promoting autophagic degradation of p85α to drive tumorigenesis” (Nature Communications, 2023)
